Measured values taken from article PMC3091868, “A Novel Structural Framework for α1A/D-Adrenoceptor Selective Antagonists Identified Using Subtype Selective Pharmacophores” (PLoS ONE, 2011).
Read-outs that look alike come from different tables or passages of the source.

Legend:
Design in all cases: species or system rodent
α1A-AR = molecular target: T1, α1A-AR (Rattus norvegicus, UniProt P43140); test: [3H]Prazosin competition/saturation binding on COS-1 membranes expressing α1A-AR; details: [3H]Prazosin 200 pM, COS-1 membranes
T1 construct: expressed in transfected cells; host or cells: COS-1
T1 sequence (P43140 1-466): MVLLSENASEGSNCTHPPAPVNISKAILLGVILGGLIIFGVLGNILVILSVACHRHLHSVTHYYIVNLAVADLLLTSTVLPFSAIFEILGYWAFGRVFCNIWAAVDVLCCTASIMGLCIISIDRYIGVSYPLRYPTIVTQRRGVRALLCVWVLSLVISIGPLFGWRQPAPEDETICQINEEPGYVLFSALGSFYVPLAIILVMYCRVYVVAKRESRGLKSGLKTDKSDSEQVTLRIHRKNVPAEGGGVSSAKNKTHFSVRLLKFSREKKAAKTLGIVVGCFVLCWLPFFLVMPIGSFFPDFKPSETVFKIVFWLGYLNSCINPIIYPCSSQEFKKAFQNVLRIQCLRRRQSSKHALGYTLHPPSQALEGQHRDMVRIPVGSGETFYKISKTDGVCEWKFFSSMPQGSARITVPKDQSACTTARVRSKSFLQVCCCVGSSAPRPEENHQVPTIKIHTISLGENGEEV
Description: (§1) COS-1 cells (American Type Culture Collection, Manassas, VA) were cultured in Dulbecco's modified Eagle's medium (DMEM) supplemented with 10% (v/v) heat inactivated fetal bovine serum (FBS), 100 µg ml^−1 penicillin and 100 µg ml^−1 streptomycin. Cells were maintained and passaged upon reaching confluence by standard cell culture techniques. pMT4 plasmids containing rodent α1-AR (a kind gift from Prof R Graham, Victor Chang Cardiac Research Institute, Australia) were used to transfect cells. Transient expression in COS-1 cells was accomplished using two techniques; the diethylaminoethane-dextran (DEAE-dextran) and Lipofectamine 2000 (Invitrogen, Carlsbad, CA, USA) methods. Briefly, the DEAE-dextran method involved washing of cells with phosphate buffered saline (PBS), followed by the addition of the DNA mixture (12–25 µg/4×10^6 cells) in DEAE-dextran (10 mg ml^−1) to cells at 60–80% confluency. Following a 3 h incubation, a PBS wash with 10% DMSO was used to shock the cells. Cells were harvested 72 h post transfection. For the Lipofectamine 2000 method, cells were incubated for 12 h with Opti-MEM (GIBCO BRL, Gaithersburg, MD, USA) containing Lipofectamine 2000.
(§2) Membranes were prepared as described previously. Briefly, COS-1 cells were transiently transfected using the DEAE-dextran method. […] Protein concentration was determined using Bradford reagent (Sigma, St Louis, MO, USA).
(§3) For all binding experiments, the reaction mixture was incubated for 1 h at room temperature, stopped by the addition of 4°C PBS and filtered with a Brandel cell harvester (Gaithersburg, MD, USA) on GF/C filters. Nonspecific binding was defined as binding in the presence of 100 µM phentolamine hydrochloride.
(§4) Nonlinear regression analysis of saturation and competition binding assay data was performed using the […] curve fitting program GraphPad Prism (San Diego, CA, USA). […] The competitive binding data for each ligand was tested for both one and two -site binding.

α1B-AR = molecular target: T2, α1B-AR (Mesocricetus auratus, UniProt P18841); test: [3H]Prazosin competition/saturation binding on COS-1 membranes expressing α1B-AR; details: [3H]Prazosin 200 pM, COS-1 membranes
T2 construct: expressed in transfected cells; host or cells: COS-1
T2 sequence (P18841 1-515): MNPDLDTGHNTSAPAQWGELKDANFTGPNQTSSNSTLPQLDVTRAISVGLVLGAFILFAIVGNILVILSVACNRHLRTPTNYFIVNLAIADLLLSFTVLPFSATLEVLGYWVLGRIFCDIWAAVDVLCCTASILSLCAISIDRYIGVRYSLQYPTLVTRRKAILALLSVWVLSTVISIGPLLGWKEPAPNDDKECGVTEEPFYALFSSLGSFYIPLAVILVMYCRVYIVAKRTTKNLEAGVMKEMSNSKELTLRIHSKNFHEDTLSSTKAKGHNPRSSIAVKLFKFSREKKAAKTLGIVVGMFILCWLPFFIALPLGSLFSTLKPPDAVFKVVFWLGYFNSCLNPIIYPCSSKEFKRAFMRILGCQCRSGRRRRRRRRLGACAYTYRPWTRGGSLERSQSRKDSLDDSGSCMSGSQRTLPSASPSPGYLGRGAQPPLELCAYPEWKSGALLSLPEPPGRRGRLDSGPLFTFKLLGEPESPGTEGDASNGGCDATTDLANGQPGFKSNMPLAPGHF
Description: as §1, §2, §3, §4

α1D-AR = molecular target: T3, α1D-AR (Rattus norvegicus, UniProt P23944); test: [3H]Prazosin competition/saturation binding on COS-1 membranes expressing α1D-AR; details: [3H]Prazosin 200 pM
T3 construct: expressed in transfected cells; host or cells: COS-1
T3 sequence (P23944 1-561): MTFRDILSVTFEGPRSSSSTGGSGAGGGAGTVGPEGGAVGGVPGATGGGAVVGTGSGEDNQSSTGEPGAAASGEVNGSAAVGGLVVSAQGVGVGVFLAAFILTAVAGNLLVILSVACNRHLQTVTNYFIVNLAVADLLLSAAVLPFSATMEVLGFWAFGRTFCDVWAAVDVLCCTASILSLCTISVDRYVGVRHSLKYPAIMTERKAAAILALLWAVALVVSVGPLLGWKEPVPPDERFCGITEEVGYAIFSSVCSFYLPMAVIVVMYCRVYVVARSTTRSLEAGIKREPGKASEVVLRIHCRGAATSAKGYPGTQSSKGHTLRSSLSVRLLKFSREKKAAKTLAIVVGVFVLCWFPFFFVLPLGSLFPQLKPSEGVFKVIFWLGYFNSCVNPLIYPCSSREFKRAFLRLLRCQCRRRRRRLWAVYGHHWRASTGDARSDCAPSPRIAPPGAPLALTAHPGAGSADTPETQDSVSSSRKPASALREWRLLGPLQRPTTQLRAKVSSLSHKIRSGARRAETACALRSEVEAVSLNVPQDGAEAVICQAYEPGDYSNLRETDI
Description: as §1, §2, §3, §4

[1] = antilog of mean pKi, Cheng-Prusoff, read-out: Ki α1A-AR
[2] = pKi = -Log Ki, read-out: pKi α1A-AR (converted)
[3] = antilog of mean pKi, Cheng-Prusoff, read-out: Ki α1B-AR
[4] = pKi = -Log Ki, read-out: pKi α1B-AR (converted)
[5] = antilog of mean pKi, Cheng-Prusoff, read-out: Ki α1D-AR
[6] = pKi = -Log Ki, read-out: pKi α1D-AR (converted)

Row | Structure (SMILES) | Ki (α1A-AR; [1]) | Ki (α1A-AR; [2]) | Ki (α1B-AR; [3]) | Ki (α1B-AR; [4]) | Ki (α1D-AR; [5]) | Ki (α1D-AR; [6])
1 | CCN(Cc1ccccc1)CC(O)c1cccc(Cl)c1 (centres unmarked) [Compound 3] | 15.1 µM | 12.6 µM | 24.4 µM | 9.55 µM | 8.35 µM | 7.76 µM
2 | CCCCC(O)CN1CCC(Cc2ccccc2)CC1 (centres unmarked) [Compound 6] | 5.22 µM | 4.9 µM | 17 µM | 13.5 µM | 5.9 µM | 5.5 µM
3 | CN(C)CC(C(=O)c1ccc(Br)cc1)C(Br)c1ccccc1 (centres unmarked) [Compound 7] | 20.3 µM | 14.8 µM | 38.5 µM | 17 µM |  | 9.77 µM
4 | Cc1cc(CN2CCCN(C(=S)Nc3ccccc3C(F)(F)F)CC2)no1 [Compound 4] | > 100 µM | > 100 µM | > 100 µM | > 100 µM | > 100 µM | > 100 µM

Other lines, results leading:

Row | Ki (α1A-AR; [1]) | Ki (α1A-AR; [2]) | Ki (α1B-AR; [3]) | Ki (α1B-AR; [4]) | Ki (α1D-AR; [5]) | Ki (α1D-AR; [6]) | Structure (SMILES)
5 | 24.5 µM | 23.4 µM | > 100 µM | > 100 µM | 36.1 µM | 24.5 µM | CN(C)c1ccc(CN2CCCN(Cc3ccc(N(C)C)cc3)C2c2cc(Cl)ccc2O)cc1 [Compound 9]
6 | > 100 µM | > 100 µM | > 100 µM | > 100 µM | > 100 µM | > 100 µM | Cc1ccc(C(=O)/C(S)=C(\Nc2cccc(Cl)c2)[n+]2ccccc2)cc1 [Compound 10]
